# Measurements: patent US8685928B2, “Antagonists of MUC1” (Dana-Farber Cancer Institute, Inc., priority 2010, dated 2014)
# pIC50: −log10 of the molar value. Non-standard residues stand in square brackets, D forms with d. Residues, ends and D or L forms follow the SMILES beside them.
# Legend:
# [1] = tested on: COLO-205 colon carcinoma xenograft; test: COLO-205 colon carcinoma xenograft model, daily IP; assay type: in vivo, mouse; settings: for Tumor response: 30 mg/kg IP daily for 28 days
# Protocol: (§1) Efficacy of GO-203-2, the reduced form of GO-203-2c that is responsible for binding to and inhibiting oligomerization of MUC1-CD was evaluated in several different human tumor xenograft models. For these studies BALB/c nu/nu mice (6-7 weeks old; Charles River Laboratories, Wilmington, Mass.) were injected with 10 million COLO-205 colon carcinoma, MiaPaCa pancreatic carcinoma or SKOV3 ovarian carcinoma cells in the right thigh. When tumors reached a predetermined size (80-125 mm^3), mice were randomized into groups of 8 animals and treatment was initiated, which consisted of daily IP injection of GO-203-2 (30 mg/kg), control peptide CP-2 (30 mg/kg) or PBS vehicle control for 28 days. Mice with tumors in excess of ˜2 g or with ulcerated tumors were euthanized, as were those found in obvious distress or in a moribund condition. Mice without palpable tumors were maintained until 90 to 100 days after treatment initiation to confirm lack of re-growth. In addition, animals were weighed periodically during the treatment period and examined for clinical signs of toxicity.
# [2] = tested on: MiaPaCa pancreatic carcinoma xenograft; test: MiaPaCa pancreatic carcinoma xenograft model, daily IP; assay type: in vivo, mouse; settings: for Tumor response: 30 mg/kg IP daily for 28 days
# Protocol: as §1
# [3] = tested on: SKOV3 ovarian carcinoma xenograft; test: SKOV3 ovarian carcinoma xenograft model, daily IP; assay type: in vivo, mouse; settings: for Tumor response: 30 mg/kg IP daily for 28 days
# Protocol: as §1
# [4] = Clinical signs of toxicity in xenograft-bearing mice; assay type: in vivo, mouse; settings: 30 mg/kg IP daily for 28 days
# Protocol: as §1
# [5] = tested on: ZR-75-1 Breast cancer cells; test: Inhibition of cell proliferation, trypan blue exclusion (Table 1); assay type: cell-based, human; settings: 5 μM peptide every day, 6-day treatment
# Protocol: (§2) Cells (ZR-75-1 breast carcinoma or H-1975 non-small cell lung carcinoma) were plated separately in 24-well plates for 24 hours prior to treatment with different peptides. The cells were then treated with 5 μM (final concentration) of different peptides every day for 4-6 days. On the day of termination, cells were washed two times with PBS and trypsinized with 0.3 ml of Trypsin/EDTA. Cell growth media was used to stop the trypsin reaction. Following washing, the cells were centrifuged and the cell pellets were re-suspended in PBS for counting in hemacytometer.
# (§3) The trypan blue dye exclusion method was used to determine the number of viable cells present in a cell suspension. Cell suspension was mixed as 1:1 with the trypan blue dye and then visually examined in a hemacytometer. A viable cell will have a clear cytoplasm whereas a non-viable/dead cell will be stained with trypan blue dye. By doing this trypan blue exclusion method, viable cell numbers were counted and percent inhibition of proliferation was then calculated comparing with untreated controls.
# [6] = tested on: H1975 Lung cancer cells; test: Inhibition of cell proliferation, trypan blue exclusion (Table 2); assay type: cell-based, human; settings: 5 μM peptide every day, 6-day treatment
# Protocol: as §2, §3
# [7] = tested on: human carcinoma cell lines
# Protocol: A series of in vitro and in vivo primary pharmacodynamic studies was conducted to assess efficacy and mechanism of action of GO-203-2c in human tumor cells.
# GO-203-2 and GO-203-2c were evaluated for ability to inhibit proliferation of murine and human carcinoma cell lines in vitro. Test compound (5 μM final concentration) was added to tumor cell cultures daily for 5 to 6 days, and cell viability was determined by trypan blue dye exclusion.
# [8] = molecular target: T1, His-tagged MUC1-CD (Homo sapiens, UniProt P15941); test: Oligomerization of purified His-tagged MUC1-CD proteins in a cell-free system; assay type: biochemical
# T1 construct: contains a 72-amino acid cytoplasmic domain (MUC1-CD)
# T1 sequence (P15941 1182-1255 limits assumed): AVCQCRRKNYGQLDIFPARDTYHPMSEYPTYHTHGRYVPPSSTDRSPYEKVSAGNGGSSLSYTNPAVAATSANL
# Source text: This finding is not surprising based on a requirement for the cysteine residues in the GO-203-2 binding domain (CQCRRKN) to be available for binding with cysteine residues on the corresponding binding domain of the MUC1-CD protein.
# [9] = tested on: His-tagged MUC1-CD; test: Cell-free oligomerization of purified His-tagged MUC1-CD, species comparison; assay type: biochemical; settings: MUC1-CD from rat, dog and human compared
# Protocol: (§4) Studies were also conducted to confirm pharmacological relevance of the rodent and nonrodent species chosen for toxicology studies, namely the rat and dog, respectively. MUC1-CD amino acid sequence was determined to be greater than 80% identical between rat, dog and human proteins, and similar expression of MUC1 was found in stomach, intestinal and lung epithelium from the different species using immunohistochemical staining. […] The results of these studies indicate that potential MUC1-CD targets in the rat, dog and human are similar with respect to sequence, tissue expression and responsiveness to inhibition of oligomerization by GO-203-2c, and confirm pharmacological relevance of the species chosen for nonclinical safety assessment of GO-203-2c.
# [10] = tested on: MUC1-CD; test: MUC1-CD oligomerization in transfected HEK 293T cells, species comparison; assay type: cell-based; settings: MUC1-CD from rat, dog and human compared
# Protocol: as §4
# [11] = molecular target: adrenergic α1A receptor (Homo sapiens, UniProt P35348); test: biochemical
# adrenergic α1A receptor, sequence (P35348 whole entry): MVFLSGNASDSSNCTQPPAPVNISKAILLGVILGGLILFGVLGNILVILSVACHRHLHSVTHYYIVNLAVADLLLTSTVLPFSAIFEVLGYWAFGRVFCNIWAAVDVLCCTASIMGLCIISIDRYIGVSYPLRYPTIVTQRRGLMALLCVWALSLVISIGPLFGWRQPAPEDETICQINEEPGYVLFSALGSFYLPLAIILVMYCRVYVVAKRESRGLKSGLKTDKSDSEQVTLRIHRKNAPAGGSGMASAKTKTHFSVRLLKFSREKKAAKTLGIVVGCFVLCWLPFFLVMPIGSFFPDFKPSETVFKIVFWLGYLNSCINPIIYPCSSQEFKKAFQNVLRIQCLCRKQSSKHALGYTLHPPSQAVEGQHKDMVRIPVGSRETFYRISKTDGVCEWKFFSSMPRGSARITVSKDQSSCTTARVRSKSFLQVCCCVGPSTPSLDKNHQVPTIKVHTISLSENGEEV
# [12] = molecular target: adrenergic α1B receptor (Homo sapiens, UniProt P35368); test: biochemical
# adrenergic α1B receptor, sequence (P35368 whole entry): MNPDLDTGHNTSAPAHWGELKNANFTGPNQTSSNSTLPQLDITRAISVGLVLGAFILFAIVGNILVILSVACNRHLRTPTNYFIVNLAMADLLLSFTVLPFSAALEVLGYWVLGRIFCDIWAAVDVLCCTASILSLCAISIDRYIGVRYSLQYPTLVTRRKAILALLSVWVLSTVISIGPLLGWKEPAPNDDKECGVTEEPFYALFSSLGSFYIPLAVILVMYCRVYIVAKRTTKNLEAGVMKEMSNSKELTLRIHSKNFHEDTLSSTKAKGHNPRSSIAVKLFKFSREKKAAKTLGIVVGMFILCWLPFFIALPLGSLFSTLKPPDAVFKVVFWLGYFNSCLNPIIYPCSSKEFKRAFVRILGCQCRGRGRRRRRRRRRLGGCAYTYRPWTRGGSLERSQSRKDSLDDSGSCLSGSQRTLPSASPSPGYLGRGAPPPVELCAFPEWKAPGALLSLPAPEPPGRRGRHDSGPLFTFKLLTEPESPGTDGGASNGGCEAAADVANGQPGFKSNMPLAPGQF
# [13] = molecular target: T2, norepinephrine transporter (Homo sapiens, UniProt P23975); test: biochemical
# T2 sequence (P23975 whole entry, species assumed): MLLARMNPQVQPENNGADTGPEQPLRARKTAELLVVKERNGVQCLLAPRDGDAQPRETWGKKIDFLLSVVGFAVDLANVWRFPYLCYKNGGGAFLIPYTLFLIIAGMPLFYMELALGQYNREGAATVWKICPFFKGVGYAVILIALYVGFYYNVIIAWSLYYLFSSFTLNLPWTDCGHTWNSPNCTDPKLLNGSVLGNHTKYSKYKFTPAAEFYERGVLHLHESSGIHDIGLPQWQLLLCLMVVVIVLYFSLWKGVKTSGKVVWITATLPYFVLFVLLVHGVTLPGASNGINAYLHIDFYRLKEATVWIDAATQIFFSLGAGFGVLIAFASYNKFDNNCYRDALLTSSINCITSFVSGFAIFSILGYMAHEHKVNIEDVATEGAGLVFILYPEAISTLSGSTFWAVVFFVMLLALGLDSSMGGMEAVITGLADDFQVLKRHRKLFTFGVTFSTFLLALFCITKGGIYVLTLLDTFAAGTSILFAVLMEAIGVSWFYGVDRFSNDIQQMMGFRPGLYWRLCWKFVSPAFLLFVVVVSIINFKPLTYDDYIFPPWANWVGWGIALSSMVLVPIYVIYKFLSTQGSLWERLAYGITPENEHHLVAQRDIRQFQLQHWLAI
# [14] = molecular target: T3, muscarinic M2 receptor (Homo sapiens, UniProt P08172); test: biochemical
# T3 sequence (P08172 whole entry): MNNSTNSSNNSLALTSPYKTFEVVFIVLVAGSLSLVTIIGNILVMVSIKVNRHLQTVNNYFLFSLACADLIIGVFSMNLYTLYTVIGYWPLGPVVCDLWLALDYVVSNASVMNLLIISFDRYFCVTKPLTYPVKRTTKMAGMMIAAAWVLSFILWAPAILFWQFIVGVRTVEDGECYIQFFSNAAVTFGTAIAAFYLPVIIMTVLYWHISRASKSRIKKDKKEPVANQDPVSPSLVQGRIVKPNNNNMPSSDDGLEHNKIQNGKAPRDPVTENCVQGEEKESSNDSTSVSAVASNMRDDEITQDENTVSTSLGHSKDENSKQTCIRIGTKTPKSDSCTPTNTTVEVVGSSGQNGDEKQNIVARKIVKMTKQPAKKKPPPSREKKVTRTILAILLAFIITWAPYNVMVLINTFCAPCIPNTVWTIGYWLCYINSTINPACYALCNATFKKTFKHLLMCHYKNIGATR
# [15] = molecular target: nicotinic acetylcholine α1 (bungarotoxin) receptor (Homo sapiens, UniProt P02708+P07510+Q07001); test: biochemical
# nicotinic acetylcholine α1 (bungarotoxin) receptor, sequence (P07510 23-517): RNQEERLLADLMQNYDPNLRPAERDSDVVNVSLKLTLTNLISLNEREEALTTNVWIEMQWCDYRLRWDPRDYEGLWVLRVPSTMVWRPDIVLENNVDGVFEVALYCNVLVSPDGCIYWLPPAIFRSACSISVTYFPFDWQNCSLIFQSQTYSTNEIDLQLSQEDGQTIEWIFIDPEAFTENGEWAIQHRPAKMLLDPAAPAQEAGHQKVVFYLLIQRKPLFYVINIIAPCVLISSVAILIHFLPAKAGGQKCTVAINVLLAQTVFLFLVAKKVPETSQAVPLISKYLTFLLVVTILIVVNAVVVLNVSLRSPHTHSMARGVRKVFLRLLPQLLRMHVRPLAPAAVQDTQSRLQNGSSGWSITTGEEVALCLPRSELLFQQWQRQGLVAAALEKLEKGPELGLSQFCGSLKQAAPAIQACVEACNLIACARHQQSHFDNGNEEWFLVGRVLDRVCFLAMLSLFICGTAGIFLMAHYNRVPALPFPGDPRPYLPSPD
# nicotinic acetylcholine α1 (bungarotoxin) receptor, sequence (P02708 21-457): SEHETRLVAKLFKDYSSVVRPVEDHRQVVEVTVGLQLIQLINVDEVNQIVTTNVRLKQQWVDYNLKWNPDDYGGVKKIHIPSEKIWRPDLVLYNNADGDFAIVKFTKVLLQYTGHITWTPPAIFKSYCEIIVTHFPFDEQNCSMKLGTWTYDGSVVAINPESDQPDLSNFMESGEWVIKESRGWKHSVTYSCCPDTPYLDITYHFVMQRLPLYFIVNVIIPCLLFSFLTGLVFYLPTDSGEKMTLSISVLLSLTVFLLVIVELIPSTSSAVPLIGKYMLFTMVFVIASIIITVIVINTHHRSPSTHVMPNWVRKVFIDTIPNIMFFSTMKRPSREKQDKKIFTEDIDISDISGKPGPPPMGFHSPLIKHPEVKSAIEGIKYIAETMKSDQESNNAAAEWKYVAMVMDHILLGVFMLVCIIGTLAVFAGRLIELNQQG
# nicotinic acetylcholine α1 (bungarotoxin) receptor, sequence (Q07001 22-517): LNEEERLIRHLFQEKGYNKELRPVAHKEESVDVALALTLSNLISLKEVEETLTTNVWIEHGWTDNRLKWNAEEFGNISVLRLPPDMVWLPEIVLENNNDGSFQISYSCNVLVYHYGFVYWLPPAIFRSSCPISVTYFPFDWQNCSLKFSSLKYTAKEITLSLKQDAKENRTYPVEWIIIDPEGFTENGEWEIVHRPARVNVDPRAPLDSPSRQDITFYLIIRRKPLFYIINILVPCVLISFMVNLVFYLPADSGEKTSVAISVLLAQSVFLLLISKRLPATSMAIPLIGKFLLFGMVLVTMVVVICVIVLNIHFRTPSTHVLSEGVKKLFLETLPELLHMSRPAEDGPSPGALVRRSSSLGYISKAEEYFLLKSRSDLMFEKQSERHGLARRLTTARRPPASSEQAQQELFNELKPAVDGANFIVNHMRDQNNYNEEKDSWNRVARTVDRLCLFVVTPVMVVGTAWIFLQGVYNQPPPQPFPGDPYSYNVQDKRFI
# nicotinic acetylcholine α1 (bungarotoxin) receptor, sequence (P11230 24-501, further chain): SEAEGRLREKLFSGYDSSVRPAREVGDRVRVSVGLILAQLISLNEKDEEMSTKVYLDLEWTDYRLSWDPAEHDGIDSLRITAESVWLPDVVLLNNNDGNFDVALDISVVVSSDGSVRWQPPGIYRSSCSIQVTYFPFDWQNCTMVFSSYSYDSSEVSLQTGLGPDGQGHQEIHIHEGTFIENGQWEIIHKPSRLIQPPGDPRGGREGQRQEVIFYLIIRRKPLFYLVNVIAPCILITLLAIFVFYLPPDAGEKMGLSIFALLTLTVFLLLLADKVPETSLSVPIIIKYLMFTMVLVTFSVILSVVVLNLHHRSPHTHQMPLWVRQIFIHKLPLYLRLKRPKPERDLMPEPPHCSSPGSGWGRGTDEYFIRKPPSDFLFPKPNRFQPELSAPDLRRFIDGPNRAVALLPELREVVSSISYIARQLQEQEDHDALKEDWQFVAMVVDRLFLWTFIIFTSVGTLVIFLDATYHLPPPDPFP
# [16] = tested on: ZR-75-1 human breast carcinoma xenograft; test: ZR-75-1 human breast carcinoma xenograft model, daily dosing for 21 days; assay type: in vivo, mouse; settings: 4 mg/kg IV daily for 21 days, nu/nu mice
# Protocol: Efficacy of GO-203-2c was evaluated in a ZR-75-1 human breast carcinoma xenograft model. Female nu/nu mice (20-30 g; Charles River Laboratories, Wilmington, Mass.) were injected in the thigh with 5 million ZR-75-1 cells in Matrigel suspension. Mice also received subcutaneous 17-β-estradiol pellets. When tumors reached 100-200 mm^3 in size (approximately 12-15 days after implantation), mice were split into 4 groups of 5 mice and administered the following treatments daily for 21 days: phosphate-buffered saline (PBS) IP, 1 mg/kg GO-203-2c IV, 4 mg/kg GO-203-2c IV or 4 mg/kg control peptide CP-3 IV. Each animal was sacrificed when the tumor reached the predetermined endpoint size (˜2500 mm^3) or when the animals remained tumor-free for 180 days after implantation of the tumor cells.
# [17] = molecular target: T2, norepinephrine transporter; settings: at a concentration of 10 μM
# [18] = molecular target: T3, muscarinic M2 receptor; settings: at a concentration of 10 μM
# [19] = up to 90 to 100 days post treatment initiation
compound,measurement,setting,value
"C[C@@H](NC(=O)[C@@H](CCC(N)=O)NC(=O)[C@@H](C)NC(=O)[C@@H](CCCNC(=N)N)NC(=O)[C@@H](CCCNC(=N)N)NC(=O)[C@@H](CCCNC(=N)N)NC(=O)[C@@H](CCCNC(=N)N)NC(=O)[C@@H](CCCNC(=N)N)NC(=O)[C@@H](CCCNC(=N)N)NC(=O)[C@@H](CCCNC(=N)N)NC(=O)[C@@H](CCCNC(=N)N)NC(=O)[C@H](N)CCCNC(=N)N)C(=O)N[C@H](CCCNC(=N)N)C(=O)N[C@H](CCCNC(=N)N)C(=O)N[C@H](CCCCN)C(=O)N[C@H](CC(N)=O)C(=O)O [CP-2, reference compound] (H-[dR][dR][dR][dR][dR][dR][dR][dR][dR][dA][dQ][dA][dR][dR][dK][dN]-OH)",Tumor response,[1],without effect
same,Tumor response,[2],without effect
same,Tumor response,[3],without effect
same,"Side effects of treatment (weight, clinical signs of toxicity)",[4],no observable side effects
CC(=O)N[C@H](CCCNC(=N)N)C(=O)N[C@H](CCCNC(=N)N)C(=O)N[C@H](CCCNC(=N)N)C(=O)N[C@H](CCCNC(=N)N)C(=O)N[C@H](CCCNC(=N)N)C(=O)N[C@H](CCCNC(=N)N)C(=O)N[C@H](CCCNC(=N)N)C(=O)N[C@H](CCCNC(=N)N)C(=O)N[C@H](CCCNC(=N)N)C(=O)N[C@H](CS)C(=O)N[C@H](CCC(N)=O)C(=O)N[C@H](CS)C(=O)N[C@H](CCCNC(=N)N)C(=O)N[C@H](CCCNC(=N)N)C(=O)N[C@H](CCCCN)C(=O)N[C@H](CC(N)=O)C(N)=O [GO-203-2] (Ac-[dR][dR][dR][dR][dR][dR][dR][dR][dR][dC][dQ][dC][dR][dR][dK][dN]-NH2),Avg (viable cell number of Groups 1-3),[5],8.06
same,% inhibition,[5]; vs untreated control,65.49%
same,"Group-1 (viable cell number, individual well)","[5]; well having 10,000 cells",7.14
same,"Group-2 (viable cell number, individual well)","[5]; well having 10,000 cells",9.38
same,"Group-3 (viable cell number, individual well)","[5]; well having 10,000 cells",7.67
same,Avg (viable cell number of Groups 1-3),[6],6.66
same,% inhibition,[6]; vs untreated control,63.64%
same,"Group-1 (viable cell number, individual well)","[6]; well having 10,000 cells",6.23
same,"Group-2 (viable cell number, individual well)","[6]; well having 10,000 cells",6.34
same,"Group-3 (viable cell number, individual well)","[6]; well having 10,000 cells",7.42
same,50% inhibition (IC50) of proliferation,[7],5 to 11 µg/mL
same,pIC50,[7],5.30 to 5.70
same,Tumor response,[1],complete tumor growth arrest and regression
same,Recurrence of tumors,[1]; [19],no evidence of recurrence
same,Tumor response,[2],complete growth arrest and regression
same,Recurrence of tumors,[2]; [19],no evidence of recurrence
same,Tumor response,[3],complete tumor growth arrest and regression
same,Recurrence of tumors,[3]; [19],no evidence of recurrence
same,"Inhibition of MUC1-CD oligomerization, reduced vs oxidized form",[8],much more effective
same,Inhibition of oligomerization of purified His-tagged MUC1-CD,[9],inhibited
same,Inhibition of MUC1-CD oligomerization,[10],in an equivalent manner
same,"Side effects of treatment (weight, clinical signs of toxicity)",[4],no observable side effects
same,pIC50,[11],5.10 to 5.52
same,pIC50,[12],5.10 to 5.52
same,pIC50,[13],5.10 to 5.52
same,pIC50,[14],5.10 to 5.52
same,pIC50,[15],5.10 to 5.52
CP-3: control peptide containing AQA instead of CQC amino acid sequence in the binding domain (RRRRRRRRRCQCRRKN) [reference compound],Tumor response,[16],ineffective
same,Tumor response,[16]; listed as CP3,no effect on tumor growth
same,% inhibition of radioligand binding,[17],79%
same,% inhibition of radioligand binding,[18],55%
